From BindingDB's records for doi:10.1016/j.bmcl.2012.07.104 (University of Lisbon, 2012)

target: T1, Cathepsin B-like cysteine protease (Trypanosoma brucei, UniProt Q6R7Z5); experiment: Inhibition of Trypanosoma brucei CatB
T1 sequence (Q6R7Z5 whole entry): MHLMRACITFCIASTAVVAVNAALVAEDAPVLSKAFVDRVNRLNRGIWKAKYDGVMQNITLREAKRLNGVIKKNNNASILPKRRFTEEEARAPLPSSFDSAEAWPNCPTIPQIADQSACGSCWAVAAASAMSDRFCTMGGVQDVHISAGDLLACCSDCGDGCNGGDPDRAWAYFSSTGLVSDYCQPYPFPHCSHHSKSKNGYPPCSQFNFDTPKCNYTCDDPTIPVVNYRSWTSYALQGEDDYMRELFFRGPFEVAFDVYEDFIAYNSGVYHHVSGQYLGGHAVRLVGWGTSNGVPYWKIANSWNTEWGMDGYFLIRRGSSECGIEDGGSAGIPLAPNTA

| Structure (SMILES) | IC50 [µM] |
| --- | --- |
| Cn1c2c3ccc(Cl)cc3nc-2c(NC2CCNCC2)c2ccc(Cl)cc21 | 43 |
| Cn1c2c3ccccc3nc-2c(NC2CCNCC2)c2ccc(Cl)cc21 | 59 |
| Cn1c2c3ccccc3nc-2c(Nc2cccnc2)c2ccccc21 | 59 |
| CCN(CC)Cc1ccc(Nc2c3nc4ccccc4c-3n(C)c3ccccc23)cc1O | 59 |
| Cn1c2c3ccccc3nc-2c(NC2CCN(Cc3ccccc3O)CC2)c2ccccc21 | 26 |
| CC(C)CN1CCC(Nc2c3nc4ccccc4c-3n(C)c3ccccc23)CC1 | 26 |
| CCN(CC)CCCC(C)Nc1c2nc3ccccc3c-2n(C)c2ccccc12 (stereo not given) | > 100 |
| CC(C)NCCCNc1c2nc3ccccc3c-2n(C)c2ccccc12 | 62 |
| CN(C)CC(C)(C)CNc1c2nc3ccccc3c-2n(C)c2ccccc12 | 62 |
| CC(CN(C)C)Nc1c2nc3ccccc3c-2n(C)c2ccccc12 (stereo not given) | > 100 |
